“Also recorded” adds a separate entry of the source. Where a name gives a salt, the structure may show the parent alone. Read-outs that look alike come from different tables or passages of the source.
Key:
[1] = 50 mg/kg, canines; cited from earlier work
[2] = tested on: superoxide anion; settings: mM concentrations, aqueous phase; cited from earlier work
[3] = doses up to 75 mg/kg, rat; cited from earlier work
[4] = mice; cited from earlier work
[5] = Oral administration, pharmacokinetics in mice; assay type: in vivo; settings: oral preparation in lipophilic emulsion, single and multiple dose, murine model
[6] = cited from earlier work
[7] = tested on: CX43; settings: aqueous ethanolic formulation, carcinogen-promoted 10T1/2 cells; cited from earlier work
[8] = Cardiac ischemia-reperfusion injury, experimental infarction model; assay type: in vivo, rat; settings: intravenous pretreatment, rodents, highest dose tested
[9] = tested on: superoxide anion; test: Direct superoxide anion scavenging by EPR spectroscopy (DEPMPO spin trap), PMA-stimulated isolated human PMNs; assay type: cell-based; settings: aqueous phase; statistical mixture and individual stereoisomers
Method: Leukocyte Isolation and Preparation. Human polymorphonuclear leukocytes (PMNs) were isolated from freshly sampled venous blood of a single volunteer by Percoll density gradient centrifugation as described previously. Briefly, each 10 mL of whole blood was mixed with 0.8 mL of 0.1 M EDTA and 25 mL of saline. The diluted blood was then layered over 9 mL of Percoll at a specific density of 1.080 g/mL. After centrifugation at 400×g for 20 min at 20° C., the plasma, mononuclear cell, and Percoll layers were removed. Erythrocytes were subsequently lysed by addition of 18 mL of ice-cold water for 30 s, followed by 2 mL of 10×PIPES buffer (25 mM PIPES, 110 mM NaCl, and 5 mM KCl, titrated to pH 7.4 with NaOH). Cells were then pelleted at 4° C., the supernatant was decanted, and the procedure was repeated. After the second hypotonic cell lysis, cells were washed twice with PAG buffer [PIPES buffer containing 0.003% human serum albumin (HSA) and 0.1% glucose]. Afterward, PMNs were counted by light microscopy on a hemocytometer. The isolation yielded PMNs with a purity of >95%. The final pellet was then suspended in PAG-CM buffer (PAG buffer with 1 mM CaCl2 and 1 mM MgCl2).
EPR Measurements. All EPR measurements were performed using a Bruker ER 300 EPR spectrometer operating at X-band with a TM110 cavity as previously described. The microwave frequency was measured with a Model 575 microwave counter (EIP Microwave, Inc., San Jose, Calif.). To measure superoxide anion (O2) generation from phorbol-ester (PMA)-stimulated PMNs, EPR spin-trapping studies were performed using the spin trap DEPMPO (Oxis, Portland, Oreg.) at 10 mM. 1×10^6 PMNs were stimulated with PMA (1 ng/mL) and loaded into capillary tubes for EPR measurements. To determine the radical scavenging ability of 3 and 9 in aqueous and ethanolic formulations, PMNs were pre-incubated for 5 minutes with test compound, followed by PMA stimulation.
Instrument settings used in the spin-trapping experiments were as follows: modulation amplitude, 0.32 G; time constant, 0.16 s; scan time, 60 s; modulation frequency, 100 kHz; microwave power, 20 milliwatts; and microwave frequency, 9.76 GHz. The samples were placed in a quartz EPR flat cell, and spectra were recorded. The component signals in the spectra were identified and quantified as reported previously.

[10] = target: human serum albumin (HSA) (Homo sapiens, UniProt P02768); test: Plasma-protein binding studies in vitro
Sequence of human serum albumin (HSA) (P02768 25-609): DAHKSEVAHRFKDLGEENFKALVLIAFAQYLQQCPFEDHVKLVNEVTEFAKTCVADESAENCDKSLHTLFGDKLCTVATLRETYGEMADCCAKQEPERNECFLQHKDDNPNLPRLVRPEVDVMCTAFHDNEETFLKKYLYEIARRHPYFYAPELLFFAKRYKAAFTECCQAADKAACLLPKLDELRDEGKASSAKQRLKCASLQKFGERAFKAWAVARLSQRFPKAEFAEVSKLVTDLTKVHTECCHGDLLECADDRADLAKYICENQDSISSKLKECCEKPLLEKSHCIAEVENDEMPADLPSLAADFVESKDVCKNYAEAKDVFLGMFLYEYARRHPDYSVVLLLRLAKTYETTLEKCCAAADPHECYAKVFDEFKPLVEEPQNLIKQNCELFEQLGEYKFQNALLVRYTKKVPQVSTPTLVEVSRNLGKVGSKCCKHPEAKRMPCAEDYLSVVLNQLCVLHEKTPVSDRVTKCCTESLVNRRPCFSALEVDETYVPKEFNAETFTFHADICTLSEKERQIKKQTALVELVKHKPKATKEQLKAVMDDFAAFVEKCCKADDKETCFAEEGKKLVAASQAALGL

CC1=C(/C=C/C(C)=C/C=C/C(C)=C/C=C/C=C(C)/C=C/C=C(C)/C=C/C2=C(C)C(=O)C(OC(=O)CCC(=O)O)CC2(C)C)C(C)(C)CC(OC(=O)CCC(=O)O)C1=O (racemic) [dAST, disodium salt disuccinate ester of astaxanthin]
protection against cardiac ischemia-reperfusion (I/R) injury [1]: significantly protect against cardiac ischemia-reperfusion (I/R) injury | inhibition of the induced superoxide anion [2]: complete inhibition | protection against cardiac ischemia-reperfusion (I/R) injury [3]: significantly protect against cardiac ischemia-reperfusion (I/R) injury | absorption and tissue distribution after oral administration [4]: rapid absorption of the compound, its cleavage to free astaxanthin, and accumulation in certain target tissues | plasma and tissue levels of nonesterified astaxanthin [5]: significant plasma and tissue levels of nonesterified astaxanthin were achieved | concentration of pseudo-solution in water [6]: up to 8 mg/ml; also recorded: approximately 10 mM | expression of CX43 and GJIC [7]: increased expression of the connexin protein CX43 and GJIC

CC1=C(/C=C/C(C)=C/C=C/C(C)=C/C=C/C=C(C)/C=C/C=C(C)/C=C/C2=C(C)C(=O)C(OC(=O)CCC(=O)O)CC2(C)C)C(C)(C)CC(OC(=O)CCC(=O)O)C1=O (stereo not shown) [dAST, disodium salt disuccinate ester of astaxanthin]
myocardial salvage [8]: up to 56% | direct scavenging of superoxide anion [9]: potent direct scavengers of superoxide anion in the aqueous phase

CC(C=CC=C(C)C=CC1=C(C)C(=O)C(OC(=O)CCC(=O)[O-])CC1(C)C)=CC=CC=C(C)C=CC=C(C)C=CC1=C(C)C(=O)C(OC(=O)CCC(=O)[O-])CC1(C)C.[Na+].[Na+] [meso-(3R,3′S)-disodium disuccinate astaxanthin]
binding to human serum albumin [10]: bound immediately and preferentially to human serum albumin (HSA) at a binding site

From patent US20060276372A1, “Carotenoids, carotenoid analogs, or carotenoid derivatives for the treatment of proliferative disorders” (priority 2005, published 2006)
